Measurements: patent US20260167623A1 (NIKANG THERAPEUTICS, INC., priority 2022, published 2026)

Assays:
CDK2 [1] = target: T1, CDK2 (Homo sapiens, UniProt P24941); test: High-throughput HTRF measurement of cellular endogenous CDK2 level (degradation, DC50/Dmax) in OVCAR3 cells, 6 h; type: cell-based; settings: 6 h compound treatment, HTRF total CDK2, read-out: DC50_OVCAR3_6h
T1 construct: High-Throughput Measurement of Cellular Endogenous CDK2; endogenous in cells; host or cells: OVCAR3
Experimental: High-Throughput Measurement of Cellular Endogenous CDK2
Effects of compounds on cellular CDK2 level were monitored by a high-throughput HTRF assay.
To determine half maximal degradation concentration (DC50) and maximum degradation level (Dmax) values of compounds, cellular CDK2 level was measured in 96-well format using HTRF total CDK2 cellular kit (Cat #64CDK2TPEG) from Cisbio.
On Day 1, OVCAR3 cells were seeded into 96-well tissue-culture treated plates at 20,000 cells/well in 200 μL and incubated overnight at 37° C. in CO2 atmosphere. On Day 2 cells were treated with compounds at concentration ranging from 0.03 to 1,000 nM using HP D300 digital dispenser. 6 hours after compound treatment, cell culture media was removed by flicking the plate and tapping the plate against clean paper towel. Immediately 30 μL 1× lysis buffer was supplemented from the kit and added to each well and the plate is incubated at room temperature on shaker for 30 min. After homogenization by pipetting up and down, 8 μL cell lysate from 96-well cell culture plate was transferred to 384-well small volume white detection plate. 2 μL premixed detection solution was added and the plate is covered with sealer. To prepare the detection solution, d2 conjugated-CDK2 antibody and Eu-cryptate conjugated CDK2 antibody were diluted into detection buffer following manufacturer's instruction. Detection plates were incubated overnight at room temperature and read on ClarioStar (BMG Labtech) in TR-FRET mode (665 nM and 620 nM). The TR-FRET ratio (665 nM/620 nM) was plotted against the compound concentration and normalized to DMSO controls (0% degradation) and lysis buffer controls (100% degradation). Half maximal degradation concentration (DC 50) […] were calculated with a four-parameter logistic fit using GraphPad Prism (version 8; La Jolla, CA).
In the table below, AA indicates a DC50 of greater than or equal to 0.5 nM but less than 1 nM; A indicates a DC50 of greater than or equal to 1 nM but less than or equal to 10 nM; B indicates a DC50 of greater than 10 nM but less than or equal to 100 nM; C indicates a DC50 of greater than 100 nM but less than or equal to 1 μM; and D indicates a DC50 of greater than 1 μM […] but less than or equal to 5 μM. NT means not tested.

CDK2 [2] = target: T1, CDK2; test: Inhibition of CDK2: phospho-Rb (S807/811) HTRF measurement in OVCAR3 cells, 24 h; type: cell-based; settings: 24 h compound treatment, read-out: pRB_OVCAR3_24h
Method in brief: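 OVCAR3 cells, seeded overnight, were exposed to compounds at 0.3 to 10,000 nM for 24 h, then lysed. Rb S807/811 phosphorylation read by HTRF (665/620 nm ratio) after 4 h detection at room temperature; data normalized to DMSO and IC50 from four-parameter logistic fit.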

| SMILES | DC50 (CDK2 [1]) | IC50 (CDK2 [2]) |
| --- | --- | --- |
| Cn1nc(N2CCC(=O)NC2=O)c2ccc(C3CCN(CC(C)(C)Cc4cccc(S(=O)(=O)N5CCC(Nc6ncc(C(F)(F)F)cn6)CC5)c4)CC3)cc21 [Example 55, 1-(6-(1-(2,2-dimethyl-3-(3-((4-((5-(trifluoro-methyl)pyrimidin-2-yl)amino)piperidin-1-yl)sulfonyl)phenyl)propyl)piperidin-4-yl)-1-methyl-1H-indazol-3-yl)dihydropyrimidine-2,4(1H,3H)-dione] | 10 to 100 nM | 1 to 100 nM |
| C=Cc1cnc(NC2CCN(S(=O)(=O)c3cccc(CN4CCC(c5ccc6c(N7CCC(=O)NC7=O)nn(C)c6c5)CC4)c3)CC2)nc1 [Example 58, 1-(1-methyl-6-(1-(3-((4-((5-vinylpyrimidin-2-yl)amino)piperidin-1-yl)sulfonyl)benzyl)-piperidin-4-yl)-1H-indazol-3-yl)dihydropyrimidine-2,4(1H,3H)-dione] | 1 to 10 nM | 100 to 500 nM |
| CCc1cnc(NC2CCN(S(=O)(=O)c3cccc(CN4CCC(c5ccc6c(N7CCC(=O)NC7=O)nn(C)c6c5)CC4)c3)CC2)nc1 [Example 61, 1-(6-(1-(3-((4-((5-ethylpyrimidin-2-yl)amino)piperidin-1-yl)sulfonyl)benzyl)-piperidin-4-yl)-1-methyl-1H-indazol-3-yl)dihydropyrimidine-2,4(1H,3H)-dione] | 10 to 100 nM | 1 to 100 nM |
| Cn1nc(N2CCC(=O)NC2=O)c2ccc(C3CCN(Cc4ccc(S(=O)(=O)N5CCC(Nc6ncc(C(F)(F)F)cn6)CC5)cc4)CC3)cc21 [Example 64, 1-(1-methyl-6-(1-(4-((4-((5-(trifluoro-methyl)pyrimidin-2-yl)amino)piperidin-1-yl)sulfonyl)benzyl)piperidin-4-yl)-1H-indazol-3-yl)dihydropyrimidine-2,4(1H,3H)-dione] | 1 to 10 nM | 1 to 100 nM |
| CC(Cc1cccc(S(=O)(=O)N2CCC(Nc3ncc(OC(F)F)cn3)CC2)c1)CN1CCC(c2ccc3c(N4CCC(=O)NC4=O)nn(C)c3c2)CC1 (stereo not shown) [Example 66, 1-(6-(1-(3-(3-((4-((5-(difluoromethoxy)-pyrimidin-2-yl)amino)piperidin-1-yl)sulfonyl)phenyl)-2-methylpropyl)-piperidin-4-yl)-1-methyl-1H-indazol-3-yl)dihydropyrimidine-2,4(1H,3H)-dione] | 1 to 10 nM | 1 to 100 nM |
| Cn1nc(N2CCC(=O)NC2=O)c2ccc(C3CCN(CC4CCN(c5cccc(S(=O)(=O)N6CCC(Nc7ncc(Cl)cn7)CC6)c5)CC4)CC3)c(Cl)c21 [Example 71, 1-(7-chloro-6-(1-((1-(3-((4-((5-chloro-pyrimidin-2-yl)amino)piperidin-1-yl)sulfonyl)phenyl)piperidin-4-yl)methyl)-piperidin-4-yl)-1-methyl-1H-indazol-3-yl)dihydropyrimidine-2,4(1H,3H)-dione] | 1 to 10 nM | 1 to 100 nM |
| O=C1CCC(N2Cc3cc(N4CCN(Cc5cccc(S(=O)(=O)N6CCC(Nc7ncc(OC(F)F)cn7)CC6)c5)CC4)c(F)cc3C2=O)C(=O)N1 (stereo not shown) [Example 74, 3-(5-(4-(3-((4-((5-(difluoromethoxy)-pyrimidin-2-yl)amino)piperidin-1-yl)sulfonyl)benzyl)piperazin-1-yl)-6-fluoro-1-oxoisoindolin-2-yl)piperidine-2,6-dione] | 1 to 10 nM | 100 to 500 nM |
| O=C1CCC(N2Cc3cc(N4CCN(Cc5cccc(S(=O)(=O)N6CCC(Nc7ncc(C(F)(F)F)cn7)CC6)c5)CC4)ccc3C2=O)C(=O)N1 (stereo not shown) [Example 76, 3-(1-oxo-5-(4-(3-((4-((5-(trifluoromethyl)-pyrimidin-2-yl)amino)piperidin-1-yl)sulfonyl)benzyl)piperazin-1-yl)isoindolin-2-yl)piperidine-2,6-dione] | 1 to 10 nM | 1 to 100 nM |
| Cn1nc(N2CCC(=O)NC2=O)c2cc(F)c(C3CCN(Cc4cccc(S(=O)(=O)N5CCC(Nc6ncc(OC(F)F)cn6)CC5)c4)CC3)cc21 [Example 77, 1-(6-(1-(3-((4-((5-(difluoromethoxy)-pyrimidin-2-yl)amino)piperidin-1-yl)sulfonyl)benzyl)piperidin-4-yl)-5-fluoro-1-methyl-1H-indazol-3-yl)dihydropyrimidine-2,4(1H,3H)-dione] | 1 to 10 nM | 1 to 100 nM |
| Cn1c(=O)n(C2CCC(=O)NC2=O)c2cccc(C3CCN(Cc4cccc(S(=O)(=O)N5CCC(Nc6ncc(C(F)(F)F)cn6)CC5)c4)CC3)c21 (stereo not shown) [Example 83, 3-(3-methyl-2-oxo-4-(1-(3-((4-((5-(trifluoromethyl)pyrimidin-2-yl)amino)piperidin-1-yl)sulfonyl)benzyl)-piperidin-4-yl)-2,3-dihydro-1H-benzo[d]imidazol-1-yl)piperidine-2,6-dione] | 1 to 10 nM | 1 to 100 nM |
| Cn1nc(N2CCC(=O)NC2=O)c2ccc(C3CCN(CCCc4cccc(S(=O)(=O)N5CCC(Nc6ncc(OC(F)F)cn6)CC5)c4)CC3)cc21 [Example 86, 1-(6-(1-(3-(3-((4-((5-(difluoromethoxy)-pyrimidin-2-yl)amino)piperidin-1-yl)sulfonyl)phenyl)propyl)piperidin-4-yl)-1-methyl-1H-indazol-3-yl)dihydropyrimidine-2,4(1H,3H)-dione] | 10 to 100 nM | 1 to 100 nM |
| Cn1nc(N2CCC(=O)NC2=O)c2ccc(C3CCN(CCCc4cccc(S(=O)(=O)N5CCC(Nc6ncc(C(F)(F)F)cn6)CC5)c4)CC3)cc21 [Example 87, 1-(1-methyl-6-(1-(3-(3-((4-((5-(trifluoro-methyl)pyrimidin-2-yl)amino)piperidin-1-yl)sulfonyl)phenyl)propyl)piperidin-4-yl)-1H-indazol-3-yl)dihydropyrimidine-2,4(1H,3H)-dione] | 1 to 10 nM | 1 to 100 nM |
| Cn1nc(N2CCC(=O)NC2=O)c2ccc(C3CCN(CC4CCN(c5cccc(S(=O)(=O)N6CCC(Nc7ncc(C(F)(F)F)cn7)CC6)c5)CC4)CC3)c(Cl)c21 [Example 89, 1-(7-chloro-1-methyl-6-(1-((1-(3-((4-((5-(trifluoromethyl)pyrimidin-2-yl)amino)-piperidin-1-yl)sulfonyl)phenyl)piperidin-4-yl)methyl)piperidin-4-yl)-1H-indazol-3-yl)dihydropyrimidine-2,4(1H,3H)-dione] | 10 to 100 nM | 1 to 100 nM |
| O=C1CCN(c2nn(CC(F)(F)F)c3cc(C4CCN(CC5CCN(c6cccc(S(=O)(=O)N7CCC(Nc8ncc(C(F)(F)F)cn8)CC7)c6)CC5)CC4)ccc23)C(=O)N1 [Example 91, 1-(1-(2,2,2-trifluoroethyl)-6-(1-((1-(3-((4-((5-(trifluoromethyl)pyrimidin-2-yl)amino)piperidin-1-yl)sulfonyl)phenyl)-piperidin-4-yl)methyl)piperidin-4-yl)-1H-indazol-3-yl)dihydropyrimidine-2,4(1H,3H)-dione] | 10 to 100 nM | 100 to 500 nM |
| O=C1CCC(N2Cc3cc(N4CCC(N5CC(Oc6cccc(S(=O)(=O)N7CCC(Nc8ncc(C(F)(F)F)cn8)CC7)c6)C5)CC4)ccc3C2=O)C(=O)N1 (stereo not shown) [Example 92, 3-(1-oxo-5-(4-(3-(3-((4-((5-(trifluoro-methyl)pyrimidin-2-yl)amino)piperidin-1-yl)sulfonyl)phenoxy)azetidin-1-yl)piperidin-1-yl)isoindolin-2-yl)piperidine-2,6-dione] | 1 to 10 nM | 100 to 500 nM |
| Cn1nc(N2CCC(=O)NC2=O)c2ccc(C3CCN(Cc4cccc(S(=O)(=O)N5CCC(Nc6ncc(OC(F)F)cn6)CC5)c4)CC3)c(F)c21 [Example 93, 1-(6-(1-(3-((4-((5-(difluoromethoxy)-pyrimidin-2-yl)amino)piperidin-1-yl)sulfonyl)benzyl)piperidin-4-yl)-7-fluoro-1-methyl-1H-indazol-3-yl)dihydropyrimidine-2,4(1H,3H)-dione] | 1 to 10 nM | 1 to 100 nM |
| Cn1nc(N2CCC(=O)NC2=O)c2ccc(C3CCN(CC4CCN(c5cccc(S(=O)(=O)N6CCC(Nc7ncc(C(F)(F)F)cn7)CC6)c5)CC4)CC3)c(F)c21 [Example 94, 1-(7-fluoro-1-methyl-6-(1-((1-(3-((4-((5-(trifluoromethyl)pyrimidin-2-yl)amino)-piperidin-1-yl)sulfonyl)phenyl)piperidin-4-yl)methyl)piperidin-4-yl)-1H-indazol-3-yl)dihydropyrimidine-2,4(1H,3H)-dione] | 10 to 100 nM | 1 to 100 nM |
